From US20230085307A1, “PYRIDAZINONE COMPOUND AND HERBICIDE” (NISSAN CHEMICAL CORPORATION, priority 2019, published 2023)

How the values were obtained:
[1] = tested on: oval-leafed pondweed; experiment: Test Example 1: herbicidal activity, application before weed generation under submerged conditions (Table 16, symbol C); format: in vivo, oval-leafed pondweed (Monochoria vaginalis); conditions: amount of applied herbicide 320 g/ha
Method in brief: (§1)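 Emulsion formulation, water-diluted to set dose, was put onto the flooded surface (4 cm depth, alluvial soil) the same day weeds were sown and 2.5-leaf rice transplanted. After 3 weeks at 25-30 °C under glass, each species was rated 0 (≤5% kill) to 5 (≥90% kill).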

[2] = tested on: rice flat sedge; experiment: Test Example 3: herbicidal effect by foliage application, Wagner pot (Table 18, symbol E); format: in vivo, rice flat sedge (Cyperus iria); conditions: 320 g/ha
Method in brief: (§2)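 Plants were sown in alluvial soil held under 0.1–0.5 cm standing water and grown 14 days in a greenhouse at 25–30 °C. An emulsifiable formulation, water-diluted to the set dose, was then sprayed onto the foliage, and effects were scored three weeks later using previously defined criteria.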

[3] = tested on: persian speedwell; experiment: Test Example 5: herbicidal effect by foliage application, plastic box (Table 20, symbol R); format: in vivo, Persian speedwell (Veronica persica); conditions: foliage application, 320 g/ha, three weeks after application
Method in brief: (§3)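 Sow seeds spot-wise in sterilized diluvial soil; cover with ~1.5 cm soil. Grow 14 days in greenhouse, 25° C. to 30° C. Spray foliage with emulsion diluted to predetermined amount. Rate effect after 3 weeks.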

[4] = tested on: green foxtail; experiment: Test Example 4: herbicidal effect by soil treatment (Table 19, symbol G); format: in vivo, green foxtail (Setaria viridis); conditions: amount of applied herbicide 320 g/ha
Method in brief: (§4)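 Soil-surface application: an emulsion agent diluted with water to the predetermined dose is sprayed uniformly over seeds lying under roughly 1.5 cm of sterilized diluvial soil. Boxes stay in a greenhouse at 25° C. to 30° C. Three weeks later, each species is graded on previously defined criteria.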

[5] = tested on: Italian ryegrass; experiment: Test Example 5: herbicidal effect by foliage application, plastic box (Table 20, symbol K); format: in vivo, Italian ryegrass (Lolium multiflorum); conditions: foliage application, 320 g/ha, three weeks after application
Method in brief: as §3

[6] = tested on: blackgrass; experiment: Test Example 5: herbicidal effect by foliage application, plastic box (Table 20, symbol J); format: in vivo, blackgrass (Alopecurus myosuroides); conditions: foliage application, 320 g/ha, three weeks after application
Method in brief: as §3

[7] = tested on: Japanese bulrush; experiment: Test Example 1: herbicidal activity, application before weed generation under submerged conditions (Table 16, symbol B); format: in vivo, Japanese bulrush (Schoenoplectus juncoides); conditions: amount of applied herbicide 320 g/ha
Method in brief: as §1

[8] = tested on: velvetleaf; experiment: Test Example 5: herbicidal effect by foliage application, plastic box (Table 20, symbol M); format: in vivo, velvetleaf (Abutilon theophrasti); conditions: foliage application, 320 g/ha, three weeks after application
Method in brief: as §3

[9] = tested on: barnyard grass; experiment: Test Example 4: herbicidal effect by soil treatment (Table 19, symbol H); format: in vivo, barnyard grass (Echinochloa crus-galli); conditions: amount of applied herbicide 320 g/ha
Method in brief: as §4

[10] = tested on: barnyard grass; experiment: Test Example 3: herbicidal effect by foliage application, Wagner pot (Table 18, symbol H); format: in vivo, barnyard grass (Echinochloa crus-galli); conditions: 320 g/ha
Method in brief: as §2

[11] = tested on: redroot pigweed; experiment: Test Example 5: herbicidal effect by foliage application, plastic box (Table 20, symbol N); format: in vivo, redroot pigweed (Amaranthus retroflexus); conditions: foliage application, 320 g/ha, three weeks after application
Method in brief: as §3

[12] = tested on: late watergrass; experiment: Test Example 1: herbicidal activity, application before weed generation under submerged conditions (Table 16, symbol A); format: in vivo, late watergrass (Echinochloa oryzicola); conditions: amount of applied herbicide 320 g/ha
Method in brief: as §1

[13] = tested on: green foxtail; experiment: Test Example 5: herbicidal effect by foliage application, plastic box (Table 20, symbol G); format: in vivo, green foxtail (Setaria viridis); conditions: foliage application, 320 g/ha, three weeks after application
Method in brief: as §3

[14] = tested on: persian speedwell; experiment: Test Example 4: herbicidal effect by soil treatment (Table 19, symbol R); format: in vivo, Persian speedwell (Veronica persica); conditions: amount of applied herbicide 320 g/ha
Method in brief: as §4

[15] = tested on: lambsquarters; experiment: Test Example 5: herbicidal effect by foliage application, plastic box (Table 20, symbol O); format: in vivo, lambsquarters (Chenopodium album); conditions: foliage application, 320 g/ha, three weeks after application
Method in brief: as §3

[16] = tested on: wild oat; experiment: Test Example 4: herbicidal effect by soil treatment (Table 19, symbol I); format: in vivo, wild oat (Avena fatua); conditions: amount of applied herbicide 320 g/ha
Method in brief: as §4

[17] = tested on: Italian ryegrass; experiment: Test Example 4: herbicidal effect by soil treatment (Table 19, symbol K); format: in vivo, Italian ryegrass (Lolium multiflorum); conditions: amount of applied herbicide 320 g/ha
Method in brief: as §4

[18] = tested on: false cleavers; experiment: Test Example 4: herbicidal effect by soil treatment (Table 19, symbol Q); format: in vivo, false cleavers (Galium spurium); conditions: amount of applied herbicide 320 g/ha
Method in brief: as §4

[19] = tested on: wild oat; experiment: Test Example 5: herbicidal effect by foliage application, plastic box (Table 20, symbol I); format: in vivo, wild oat (Avena fatua); conditions: foliage application, 320 g/ha, three weeks after application
Method in brief: as §3

[20] = tested on: chickweed; experiment: Test Example 5: herbicidal effect by foliage application, plastic box (Table 20, symbol P); format: in vivo, common chickweed (Stellaria media); conditions: foliage application, 320 g/ha, three weeks after application
Method in brief: as §3

[21] = tested on: Chinese sprangletop; experiment: Test Example 3: herbicidal effect by foliage application, Wagner pot (Table 18, symbol D); format: in vivo, chinese sprangletop (Leptochloa chinensis); conditions: 320 g/ha
Method in brief: as §2

[22] = tested on: blackgrass; experiment: Test Example 4: herbicidal effect by soil treatment (Table 19, symbol J); format: in vivo, blackgrass (Alopecurus myosuroides); conditions: amount of applied herbicide 320 g/ha
Method in brief: as §4

[23] = tested on: velvetleaf; experiment: Test Example 4: herbicidal effect by soil treatment (Table 19, symbol M); format: in vivo, velvetleaf (Abutilon theophrasti); conditions: amount of applied herbicide 320 g/ha
Method in brief: as §4

[24] = tested on: barnyard grass; experiment: Test Example 5: herbicidal effect by foliage application, plastic box (Table 20, symbol H); format: in vivo, barnyard grass (Echinochloa crus-galli); conditions: foliage application, 320 g/ha, three weeks after application
Method in brief: as §3

[25] = tested on: southern crabgrass; experiment: Test Example 5: herbicidal effect by foliage application, plastic box (Table 20, symbol F); format: in vivo, southern crabgrass (Digitaria ciliaris); conditions: foliage application, 320 g/ha, three weeks after application
Method in brief: as §3

[26] = tested on: chickweed; experiment: Test Example 4: herbicidal effect by soil treatment (Table 19, symbol P); format: in vivo, common chickweed (Stellaria media); conditions: amount of applied herbicide 320 g/ha
Method in brief: as §4

[27] = tested on: southern crabgrass; experiment: Test Example 4: herbicidal effect by soil treatment (Table 19, symbol F); format: in vivo, southern crabgrass (Digitaria ciliaris); conditions: amount of applied herbicide 320 g/ha
Method in brief: as §4

[28] = tested on: false cleavers; experiment: Test Example 5: herbicidal effect by foliage application, plastic box (Table 20, symbol Q); format: in vivo, false cleavers (Galium spurium); conditions: foliage application, 320 g/ha, three weeks after application
Method in brief: as §3

[29] = tested on: windgrass; experiment: Test Example 4: herbicidal effect by soil treatment (Table 19, symbol L); format: in vivo, windgrass (Apera spica-venti); conditions: amount of applied herbicide 320 g/ha
Method in brief: as §4

[30] = tested on: windgrass; experiment: Test Example 5: herbicidal effect by foliage application, plastic box (Table 20, symbol L); format: in vivo, windgrass (Apera spica-venti); conditions: foliage application, 320 g/ha, three weeks after application
Method in brief: as §3

[31] = tested on: redroot pigweed; experiment: Test Example 4: herbicidal effect by soil treatment (Table 19, symbol N); format: in vivo, redroot pigweed (Amaranthus retroflexus); conditions: amount of applied herbicide 320 g/ha
Method in brief: as §4

CCCC(=O)Oc1c(C)nn(C)c(=O)c1-c1c(-c2ccc3c(c2)OCCO3)sc2cc(C)ccc12 [3-060]
Herbicidal effect, C: oval-leafed pondweed [1]: 0 (Herbicidal rate of 5% or less (almost no effect))
herbicidal effect on rice flat sedge (E) [2]: 3 (Herbicidal rate of 40% or more and less than 70%)
R: persian speedwell, herbicidal effect grade [3]: 5 (Herbicidal rate of 90% or more (almost completely withered))
G: green foxtail, herbicidal effect grade [4]: 0 (Herbicidal rate of 5% or less (almost no effect))
K: Italian ryegrass, herbicidal effect grade [5]: 0 (Herbicidal rate of 5% or less (almost no effect))
J: blackgrass, herbicidal effect grade [6]: 3 (Herbicidal rate of 40% or more and less than 70%)
Herbicidal effect, B: Japanese bulrush [7]: 2 (Herbicidal rate of 20% or more and less than 40%)
M: velvetleaf, herbicidal effect grade [8]: 0 (Herbicidal rate of 5% or less (almost no effect))
H: barnyard grass, herbicidal effect grade [9]: 0 (Herbicidal rate of 5% or less (almost no effect))
herbicidal effect on barnyard grass (H) [10]: 3 (Herbicidal rate of 40% or more and less than 70%)
N: redroot pigweed, herbicidal effect grade [11]: 0 (Herbicidal rate of 5% or less (almost no effect))
Herbicidal effect, A: late watergrass [12]: 1 (Herbicidal rate of 5% or more and less than 20%)
G: green foxtail, herbicidal effect grade [13]: 0 (Herbicidal rate of 5% or less (almost no effect))
R: persian speedwell, herbicidal effect grade [14]: 3 (Herbicidal rate of 40% or more and less than 70%)
O: lambsquarters, herbicidal effect grade [15]: 0 (Herbicidal rate of 5% or less (almost no effect))
I: wild oat, herbicidal effect grade [16]: 0 (Herbicidal rate of 5% or less (almost no effect))
K: Italian ryegrass, herbicidal effect grade [17]: 0 (Herbicidal rate of 5% or less (almost no effect))
Q: false cleavers, herbicidal effect grade [18]: 0 (Herbicidal rate of 5% or less (almost no effect))
I: wild oat, herbicidal effect grade [19]: 0 (Herbicidal rate of 5% or less (almost no effect))
P: chickweed, herbicidal effect grade [20]: 5 (Herbicidal rate of 90% or more (almost completely withered))
herbicidal effect on Chinese sprangletop (D) [21]: 4 (Herbicidal rate of 70% or more and less than 90%)
J: blackgrass, herbicidal effect grade [22]: 0 (Herbicidal rate of 5% or less (almost no effect))
M: velvetleaf, herbicidal effect grade [23]: 0 (Herbicidal rate of 5% or less (almost no effect))
H: barnyard grass, herbicidal effect grade [24]: 0 (Herbicidal rate of 5% or less (almost no effect))
F: southern crabgrass, herbicidal effect grade [25]: 0 (Herbicidal rate of 5% or less (almost no effect))
P: chickweed, herbicidal effect grade [26]: 0 (Herbicidal rate of 5% or less (almost no effect))
F: southern crabgrass, herbicidal effect grade [27]: 0 (Herbicidal rate of 5% or less (almost no effect))
Q: false cleavers, herbicidal effect grade [28]: 0 (Herbicidal rate of 5% or less (almost no effect))
L: windgrass, herbicidal effect grade [29]: 0 (Herbicidal rate of 5% or less (almost no effect))
L: windgrass, herbicidal effect grade [30]: 3 (Herbicidal rate of 40% or more and less than 70%)
N: redroot pigweed, herbicidal effect grade [31]: 0 (Herbicidal rate of 5% or less (almost no effect))
